Measurements from the supplement of paper PMC8882468.

How the values were obtained:
Test in all cases: CTG-3D luminescence at 96 h relative to day-0 seeding control (ratio to day 0); higher = more growth / less cytotoxicity; PDxO 3D drug screen (set 2), 96 h, CTG-3D normalised to day-0 seeding control.
HCI-002 = system: HCI-002 (organoid from a triple-negative breast cancer xenograft)
HCI-024 = system: HCI-024 (organoid from a breast cancer xenograft)
HCI-019 = system: HCI-019 (organoid from a triple-negative breast cancer xenograft)
HCI-023 = system: HCI-023 (organoid from a triple-negative breast cancer xenograft)
HCI-027 = system: HCI-027 (organoid from a triple-negative breast cancer xenograft)

CC(=O)c1c(C)c2cnc(Nc3ccc(N4CCNCC4)cn3)nc2n(C2CCCC2)c1=O [palbociclib]
CTG-3D luminescence at 96 h
Details | 12.5 pM | 0.00025 µM | 0.005 µM | 0.1 µM | 1 µM | 10 µM | 100 µM | 625 fM
HCI-002, days in culture: 127 | 2.7 | 3.03 | 2.72 | 3.1 | 2.26 | 2.38 | 2.33 | 2.77
HCI-002, days in culture: 155 | 4.87 | 4.92 | 5.53 | 4.73 | 3.5 | 3.42 | 2.36 | 5.36
HCI-002, days in culture: 168 | 3.15 | 3.17 | 3.77 | 2.95 | 3.02 | 2.23 | 1.63 | 4.09
HCI-019, days in culture: 173 | 2.68 | 2.28 | 1.24 | 2.55 | 2.78 | 1.39 | 1.9 | 2.01
HCI-019, days in culture: 194 | 3.12 | 1.02 | 3.29 | 2.76 | 2.08 | 1.97 | 1.02 | 1.43
HCI-019, days in culture: 215 | 1.93 | 1.31 | 2.06 | 1.48 | 1.83 | 1.35 | 1.38 | 1.73
HCI-023, days in culture: 223 | 2.23 | 2.46 | 1.71 | 1.94 | 1.21 | 1.61 | 1.04 | 1.86
HCI-023, days in culture: 238 | 1.53 | 1.27 | 1.67 | 1.48 | 1.87 | 1.53 | 0.908 | 1.59
HCI-023, days in culture: 252 | 2.28 | 1.93 | 1.66 | 1.79 | 1.79 | 1.92 | 1.35 | 1.91
HCI-024, days in culture: 202 | 0.831 | 0.703 | 1.17 | 1.26 | 1.7 | 1.1 | 0.337 | 1.22
HCI-024, days in culture: 231 | 0.919 | 0.896 | 1.34 | 0.956 | 1.09 | 0.74 | 0.498 | 1.21
HCI-024, days in culture: 254 | 1.24 | 1.36 | 0.864 | 0.919 | 1.17 | 1.25 | 0.688 | 2.68
HCI-027, days in culture: 145 | 1.41 | 2.02 | 1.64 | 1.26 | 1.55 | 0.841 | 0.458 | 1.58
HCI-027, days in culture: 158 | 1.35 | 1.77 | 2.1 | 1.52 | 0.941 | 0.942 | 0.608 | 3.32
HCI-027, days in culture: 164 | 2.57 | 1.87 | 1.48 | 1.63 | 1.33 | 1.31 | 0.892 | 2.8
HCI-027, days in culture: 176 | 3.61 | 2.85 | 1.73 | 2.1 | 1.82 | 0.641 | 0.373 | 2.61
HCI-027, days in culture: 186 | 1.11 | 1.93 | 2.5 | 2.42 | 0.412 | 1.4 | 0.411 | 1.67

Cc1c(CN2CCN(C(=O)[C@H](C)O)CC2)sc2c(N3CCOCC3)nc(-c3cnc(N)nc3)nc12 [apitolisib]
CTG-3D luminescence at 96 h
Details | 12.5 pM | 0.00025 µM | 0.005 µM | 0.1 µM | 1 µM | 10 µM | 100 µM | 625 fM
HCI-002, days in culture: 127 | 2.45 | 2.82 | 2.96 | 2.58 | 1.05 | 0.803 | 0.805 | 2.74
HCI-002, days in culture: 155 | 5.36 | 5.25 | 5.97 | 4.01 | 1.36 | 0.808 | 0.848 | 4.72
HCI-002, days in culture: 168 | 3.42 | 3.42 | 4.23 | 2.67 | 1.16 | 0.818 | 0.75 | 3.69
HCI-019, days in culture: 173 | 2.46 | 1.25 | 0.933 | 2.29 | 0.88 | 0.36 | 0.336 | 1.93
HCI-019, days in culture: 194 | 1.95 | 1.96 | 2.18 | 0.828 | 0.744 | 0.462 | 0.305 | 1.85
HCI-019, days in culture: 215 | 0.992 | 1.33 | 1.51 | 0.699 | 0.362 | 0.15 | 0.168 | 1.4
HCI-023, days in culture: 223 | 2.19 | 2.65 | 1.81 | 1.85 | 0.861 | 0.971 | 0.469 | 2.04
HCI-023, days in culture: 238 | 1.77 | 1.62 | 1.45 | 1.58 | 1.5 | 0.763 | 0.38 | 1.65
HCI-023, days in culture: 252 | 1.95 | 1.92 | 1.7 | 2.06 | 1.62 | 0.654 | 0.459 | 1.97
HCI-024, days in culture: 202 | 1.67 | 1.17 | 1 | 1.17 | 0.494 | 1.03 | 0.293 | 1.42
HCI-024, days in culture: 231 | 1.04 | 1.28 | 1.23 | 1.04 | 0.577 | 0.527 | 0.227 | 1.38
HCI-024, days in culture: 254 | 1.36 | 0.995 | 0.856 | 2.4 | 0.795 | 0.608 | 0.25 | 1.94
HCI-027, days in culture: 145 | 1.36 | 2 | 1.85 | 1.14 | 0.404 | 0.297 | 0.262 | 1.64
HCI-027, days in culture: 158 | 2.21 | 2.37 | 2.99 | 2.07 | 0.609 | 1.12 | 0.342 | 6.72
HCI-027, days in culture: 164 | 1.35 | 2.18 | 2.6 | 1.92 | 0.894 | 0.441 | 0.389 | 1.48
HCI-027, days in culture: 176 | 3.68 | 2.63 | 1.06 | 1.66 | 0.9 | 0.431 | 0.271 | 1.29
HCI-027, days in culture: 186 | 1.37 | 1.93 | 1.13 | 0.973 | 0.319 | 0.706 | 0.112 | 2.34

CC(C)n1nc(-c2ccc3oc(N)nc3c2)c2c(N)ncnc21 [sapanisertib]
CTG-3D luminescence at 96 h
Details | 12.5 pM | 0.00025 µM | 0.005 µM | 0.1 µM | 1 µM | 10 µM | 100 µM | 625 fM
HCI-002, days in culture: 127 | 2.42 | 2.94 | 2.62 | 1.76 | 0.875 | 0.742 | 0.27 | 3.04
HCI-002, days in culture: 155 | 5.75 | 5.31 | 5.49 | 2.38 | 1.32 | 0.875 | 0.163 | 4.67
HCI-002, days in culture: 168 | 3.37 | 3.2 | 3.78 | 1.61 | 0.882 | 0.787 | 0.155 | 4.04
HCI-019, days in culture: 173 | 2.61 | 0.967 | 1.48 | 1.01 | 0.438 | 0.352 | 0.0514 | 1.71
HCI-019, days in culture: 194 | 1.66 | 1.19 | 1.63 | 0.737 | 0.441 | 0.49 | 0.0673 | 3.01
HCI-019, days in culture: 215 | 1.78 | 1.21 | 1.14 | 0.664 | 0.531 | 0.192 | 0.0431 | 1.84
HCI-023, days in culture: 223 | 1.99 | 3.08 | 1.41 | 0.945 | 0.479 | 0.703 | 0.169 | 2.08
HCI-023, days in culture: 238 | 1.38 | 1.49 | 1.44 | 0.777 | 0.723 | 0.606 | 0.2 | 1.64
HCI-023, days in culture: 252 | 2.43 | 1.86 | 1.79 | 1.19 | 0.654 | 0.535 | 0.388 | 1.93
HCI-024, days in culture: 202 | 1.13 | 0.881 | 0.616 | 0.616 | 0.515 | 0.634 | 0.155 | 1.14
HCI-024, days in culture: 231 | 1.11 | 1.3 | 1.01 | 0.69 | 0.589 | 0.241 | 0.0656 | 0.868
HCI-024, days in culture: 254 | 2.43 | 1.09 | 1.25 | 1.1 | 0.518 | 0.541 | 0.118 | 1.6
HCI-027, days in culture: 145 | 1.73 | 1.87 | 1.67 | 0.675 | 0.62 | 0.3 | 0.158 | 1.76
HCI-027, days in culture: 158 | 1.38 | 2.26 | 2.09 | 1.46 | 0.941 | 0.992 | 0.124 | 3.36
HCI-027, days in culture: 164 | 1.86 | 1.51 | 1.15 | 1.08 | 1.1 | 0.369 | 0.41 | 2.35
HCI-027, days in culture: 176 | 3.48 | 2.27 | 1.45 | 1.22 | 0.927 | 0.364 | 0.195 | 2.69
HCI-027, days in culture: 186 | 0.934 | 1.54 | 1.53 | 1.25 | 0.548 | 0.717 | 0.142 | 2.62
